Measurements from US9499484B2, “Indole, indoline derivatives, compositions comprising them and uses thereof” (priority 2012, dated 2016).
Structures can show the parent of a compound that is named as a salt. Where two headings read alike, the source gives them in different places.

Columns and labels:
BuChE = target: T1, BuChE (UniProt P81908); type: biochemical, human or equine serum; conditions: read-out: IC50 BuChE 120 min; Table 3; 120 min incubation
T1 construct: 120 min incubation; BuChE IC50
Protocol: (§1) B. Measurement of Acetylcholinesterase (AChE) and Butylcholinesterase (BuChE) Inhibition In Vitro
(§2) The enzyme was incubated at 37° C. with 6-10 concentrations of the compounds tested and samples were collected at 15, 30, 60 and 120 min Aliquots were transferred to an Elisa multiscan microplate reader (Labsystems) at 15-60 sec time intervals for the determination of residual AChE activity, with Ascent PC software. […] The % inhibition of AChE by each concentration was calculated by comparison with the activity of the enzyme in the absence of drug. […] BuChE-inhibitory activity was determined as described above using BuChE (Sigma Israel) with butylthiocholine iodide (BuTh) 0.075M as a substrate.

[1] = system: rat cardiac myoblasts (H9c2); experiment: Protection against H2O2-induced cell death in cardiomyocytes, Alamar Blue; type: cell-based; conditions: concentration(s) giving >50% protection
Protocol: C. Measurement of Protective Activity Against Oxidative Stress in Cell Cultures
Compounds of the invention were tested for their potential to protect against cell death induced by oxidative stress in a cell line derived from rat cardiac myoblasts (H9c2) (Hescheler et al., 1991). Cells were cultured in Dulbecco's Modified Eagle's Medium (DMEM), 4500 mg/L D-glucose with 10% foetal calf serum (FCS), 10000 U/mL penicillin, […] streptomycin and 25 μg/mL Amphotericin B at 37° C. with 95% air and 5% CO2. One day prior to the measurement, cells were seeded in 96 well-plates at a density of 5,000 cells/well and incubated with 100 μM H2O2 for 1 h. […] Cells were incubated with different compounds of the invention in several concentrations ranging from 0.0001-100 μM, for 1, 4 or 7 h prior to addition of H2O2. Cell viability was measured by means of Alamar Blue (AbD Serotec, BUF012A). In order to compare the protective effect of the compounds this degree of cell death was normalized to 100% in each experiment. The effect of the drugs is expressed as percent reduction of this value.

[2] = Radical scavenging, glucose oxidase/luminol luminescence; type: biochemical; conditions: concentration reducing luminescence/radical by 50%; mean ± SD, three independent experiments
Protocol: A. Measurement of Radical Scavenging
A mixture comprising glucose oxidase (GO), luminol, sodium selenite [IV] ([…]) and cobalt [II] (Co^+2) all in Hank's Balance Salt Solution (HBSS) was used (Ginsburg et al, 2004). The production of H2O2 produces a burst of luminescence within 30-60 sec, which lasts for 7-10 min. The luminescence involves oxidation of SEL+5 to it SEL+6 and also the generation of oxidants, which are catalyzed by Co^+2. This method mimics infection and inflammation conditions in which there is an accumulation of several oxidant species. This method provides a source of several radicals. Reduction in luminescence by the compounds is due to their ability to sequester radicals and was measured after addition of several concentrations of each compound. The concentration of each compound that reduced the luminescence by 50% was calculated.

AChE = target: T2, AChE (UniProt P23795); type: biochemical, human or bovine erythrocytes; conditions: Table 3; 120 min incubation; read-out: IC50 AChE 120 min
T2 sequence (P23795 1-613): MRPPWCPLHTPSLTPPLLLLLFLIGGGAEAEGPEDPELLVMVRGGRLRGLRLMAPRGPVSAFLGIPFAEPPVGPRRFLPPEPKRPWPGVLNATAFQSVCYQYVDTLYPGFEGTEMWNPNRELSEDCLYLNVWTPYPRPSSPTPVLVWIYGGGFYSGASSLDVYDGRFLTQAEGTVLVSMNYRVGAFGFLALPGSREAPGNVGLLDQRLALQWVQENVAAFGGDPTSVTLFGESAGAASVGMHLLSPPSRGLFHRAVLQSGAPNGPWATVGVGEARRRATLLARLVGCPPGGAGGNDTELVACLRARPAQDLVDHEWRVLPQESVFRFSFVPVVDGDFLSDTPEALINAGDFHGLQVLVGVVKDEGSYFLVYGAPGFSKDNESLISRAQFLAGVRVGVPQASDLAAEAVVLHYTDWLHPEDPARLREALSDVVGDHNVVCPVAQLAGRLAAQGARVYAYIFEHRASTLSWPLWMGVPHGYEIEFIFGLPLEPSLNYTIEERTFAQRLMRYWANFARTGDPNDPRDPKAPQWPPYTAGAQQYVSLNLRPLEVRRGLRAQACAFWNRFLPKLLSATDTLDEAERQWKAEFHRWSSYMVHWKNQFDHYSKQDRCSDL
Protocol: as §1, §2

[3] = system: TNF-α, BV2 mouse microglial cells; experiment: TNF-α reduction in LPS-stimulated BV2 microglia; type: cell-based; conditions: for Reduction in TNF-α levels, BV2 Microglia range: concentration range, None = no reduction up till 100 nM
Protocol: (§3) The BV2 mouse microglial cells were created by infecting primary mouse microglia with v-raf/v-myc oncogen-carrying retrovirus and donated by Dr. Sigal Fleisher—Berkovich (Ben-Gurion University of the Negev). The cells were cultured in RPMI 1640 containing 0.4 mM L-Glutamine, 10% FCS, 100 units/ml penicillin, 100 μg/ml streptomycin and maintained in a humidified incubator at 37° C. with 5% CO2. For measurement of the effect of compounds on the release of NO the cells were seeded in a density of 80,000 cells/ml and confluence of about 60%, and incubated with test compounds (in the absence of FCS) for […] All the medium was removed and fresh medium containing FCS and LPS (10 μg/ml) added and the cells maintained at 37° C. for 24 h. The release of NO into the medium was determined by measurement of nitrite levels using Griess reagent reaction. For measurement of protein levels of cytokines cells were seeded in a density of 80,000 and incubated with test compounds (in the absence of FCS) and then with LPS as described above. The medium was centrifuged and supernatants collected after 6 h for TNF-α (Biolegend) and after 20 h for IL-6 (Biolegend).

[4] = system: NO, BV2 mouse microglial cells; experiment: NO reduction in LPS-stimulated BV2 microglia; type: cell-based; conditions: for Reduction in NO levels by at >20%, BV2 Microglia range: concentration range, None = no reduction up till 100 nM
Protocol: as §3

TNF-α, RAW 264.7 cells = experiment: TNF-α reduction in LPS-stimulated RAW 264.7 macrophages; type: cell-based, mouse
NO, RAW 264.7 cells = experiment: NO reduction in LPS-stimulated RAW 264.7 macrophages; type: cell-based, mouse
[5] = system: ChE (AChE, BuChE) in plasma, muscle, spleen, brain; conditions: for ChE inhibition in plasma, muscle, and spleen: after ip and or oral administration in mice
Protocol: E. Acetylcholinesterase (AChE) and Butylcholinesterase (BuChE) Inhibition Ex Vivo
Compounds of the invention or saline were administrated by intraperitoneal (ip) injection or gavage to groups of 6-7 male ICR or Balb C mice (5-6 weeks of age). The mice were sacrificed 15, 30, 60 or 120 min after drug administration and the brain (minus cerebellum), spleen, and muscle were rapidly removed, weighed and put on ice. Blood was also collected in heparinised tubes, centrifuged at 14000 rpm at room temperature for 4 mM to provide plasma. Phosphate buffer pH 7 was added to each tissue to produce concentrations of 1 mg/mL for brain and spleen and 8 mg/mL for muscle. The tissues were homogenised in cold phosphate buffer pH 7 containing 0.1% Triton and centrifuged at 14000 rpm. Aliquots of plasma and the supernatant of all tissues were incubated with AcTh or BuTh and DTNB in phosphate buffer pH 7 and the rate of development of the yellow colour was measured as described above. Enzyme activity was measured for each time and drug concentration and percent inhibition of the AChE or BuChE activity was calculated by comparison with that of control mice injected with saline. Results are represented as p moles acetylthiocholine or butythiocholine hydrolysed/min/gm tissue.

Radical scavenging, Sin1 = type: biochemical; conditions: mean ± SD, three independent experiments
[6] = Mus musculus, RAW264.7, 6 h, read-out: Reduction in TNF-α levels, RAW Macrophages % peak reduction
[7] = concentration range; None = no reduction up till 100 nM
[8] = Mus musculus, RAW264.7, 24 h, read-out: Reduction in NO levels, RAW Macrophages % peak reduction
[9] = cells in μM, no effect ≦ 100 μM given as >100

Row | SMILES | IC50 (BuChE) | Cardiomyocte cell line Conc′ >50% protection H2O2 Alamar blue ([1]; cells in nM) | IC50 [2] | Reduction in TNF-α levels, BV2 Microglia range [3] | Reduction in NO levels by at >20%, BV2 Microglia range [4] | Cardiomyocte cell line Conc′ >50% protection H2O2 Alamar blue [1, 9] | also measured
1 | CCCCN(C)C(=O)Oc1ccc2c(c1)NCC2CCC(=O)OC (stereo not drawn) [AN-677, 3-(2-(Methoxycarbonyl)ethyl)-1-indoline-6-yl butylmethylcarbamate hydrochloride] | 404 µM | 1 to 10 nM | 24.1 ± 0.18 µM | – | – | – | IC50 (AChE): 62.3 µM
2 | CCN(C)C(=O)Oc1ccc2c(c1)NCC2CCC(=O)O (stereo not drawn) [AN-681, 3-(6-(Ethyl(methyl)carbamoyloxy)indolin-3-yl) propanoic acid hydrochloride] | 10 µM | – | 1.14 ± 0.09 µM | None | None | – | Emax (TNF-α, RAW 264.7 cells; [6]): 29.2 ± 5.6%; Reduction in TNF-α levels, RAW Macrophages range (TNF-α, RAW 264.7 cells; [7]): 0.1 to 100 nM; Emax (NO, RAW 264.7 cells; [8]): 50.1 ± 4.1%; Reduction in NO levels by at >20%, RAW Macrophages range (NO, RAW 264.7 cells; [7]): 10^−1-100 nM
3 | COC(=O)CCC1CNc2cc(OC(=O)N(C)c3ccc(OC)cc3)ccc21 (stereo not drawn) [AN-685, Methyl 3-(6-((4-methoxyphenyl)(methyl)carbamoyloxy)indolin-3-yl)propanoate hydrochloride] | 54 µM | 0.001 to 0.1 nM | 3.41 ± 0.02 µM | – | – | – | –
4 | COC(=O)CCC1CN(C)c2cc(OC(=O)N(C)c3ccc(OC)cc3)ccc21 (stereo not drawn) [AN-687, Methyl 3-(6-((4-methoxyphenyl)(methyl)carbamoyloxy)-1-methylindolin-3-yl)propanoate hydrochloride] | 372 µM | – | 2.24 ± 0.03 µM | – | – | 100 to 10000 nM | –
5 | CCCCN(C)C(=O)Oc1ccc2c(c1)N(C)CC2CCC(=O)OC (stereo not drawn) [AN-691, Methyl 3-(6-(butyl(methyl)carbamoyloxy)-1-methylindolin-3-yl)propanoate hydrochloride] | 66.8 µM | – | 6.27 ± 0.05 µM | – | – | 100000 nM | –
6 | COC(=O)CCC1CNc2cccc(OC(=O)N(C)c3ccc(OC)cc3)c21 (stereo not drawn) [AN-819, 3-(3-methoxy-3-oxopropyl)-4-(((4-methoxyphenyl)(methyl)carbamoyl)oxy) indolin-1-ium hydrochloride] | 4.6 µM | 0.001 to 1 nM | 19 ± 0.6 µM | – | – | – | ChE inhibition in plasma, muscle, and spleen [5]: inhibited ChE; IC50 (Radical scavenging, Sin1): 3.18 ± 0.2 µM
7 | COC(=O)CCC1CNc2cccc(O)c21 (stereo not drawn) [AN-832, Methyl 3-(4-hydroxyindolin-3-yl)propanoate hydrochloride] | – | – | 0.67 ± 0.05 µM | 10^−1-100 nM | None | – | Reduction in TNF-α levels, BV2 Microglia % peak reduction [3]: 38.2 ± 3.2%; inhibition of the level of TNF-α induced in RAW cells by LPS (FIG. 3) (TNF-α, RAW 264.7 cells): inhibition; Emax (TNF-α, RAW 264.7 cells; Mus musculus, RAW264.7, 6 h; read-out: Reduction in TNF-α levels, RAW Macrophages % peak reduction): 39.2 ± 2.6%; Emax (NO, RAW 264.7 cells; Mus musculus, RAW264.7, 24 h; read-out: Reduction in NO levels, RAW Macrophages % peak reduction): 46.1 ± 3%; IC50 (Radical scavenging, Sin1): 3.54 ± 0.21 µM
8 | COC(=O)CCC1CN(C)c2cccc(O)c21.Cl (stereo not drawn) [AN-833, Methyl 3-(4-hydroxy-1-methylindolin-3-yl)propanoate hydrochloride] | – | – | 0.45 ± 0.03 µM | – | – | no effec ≦ 100 μM | –
9 | O=C(O)CCC1CNc2cccc(O)c21 (stereo not drawn) [AN-834, 3-(4-hydroxyindolin-3-yl)propanoic acid hydrochloride] | – | 0.1 to 10 nM | 1.44 ± 0.04 µM | – | – | – | –
10 | CCN(C)C(=O)Oc1cccc2c1C(CCC(=O)O)CN2 (stereo not drawn) [AN-850, hydrochloride] | 0.3 µM | – | 1.59 ± 0.39 µM | 10^−3-100 nM | 10^−2-100 nM | – | Reduction in TNF-α levels, BV2 Microglia % peak reduction [3]: 30.5 ± 0.6%; Reduction in NO levels, BV2 Microglia % peak reduction [4]: 37.6 ± 5.0%; ChE inhibition in plasma, muscle, and spleen [5]: inhibited ChE; IC50 (AChE): 19 µM; Reduction in TNF-α levels, RAW Macrophages range (TNF-α, RAW 264.7 cells; [7]): None
11 | CCOC(=O)CCC1CNc2cccc(OC(=O)N(C)CC)c21.O=C(O)CC(O)(CC(=O)O)C(=O)O (stereo not drawn) [AN-871] | – | – | – | – | – | no effect ≦ 100 μM | –
12 | CCN(C)C(=O)Oc1cccc2[nH]cc(CCN)c12.Cl [AN-886, 2-(4-((ethyl(methyl)carbamoyl)oxy)-1H-indol-3-yl)ethanaminium hydrochloride] | – | – | – | – | – | no effect ≦ 100 μM | –
13 | CCN(C)C(=O)Oc1cccc2c1C(CCN)CN2 (stereo not drawn) [AN-890, 3-(2-Aminoethyl)indolin-4-yl ethyl(methyl)carbamate dihydrochloride] | 0.2 µM | – | 0.07 ± 0.01 µM | None | None | – | ChE inhibition in plasma, muscle, and spleen [5]: inhibited ChE; ChE inhibition in skeletal muscle ([5]; mice, 1 mg/kg): little or no effect; ChE inhibition in plasma and spleen ([5]; mice, 1 mg/kg, ip and oral, 30 to 120 min): inhibited ChE in plasma and spleen equally well after ip and oral administration; inhibition of the level of TNF-α induced in RAW cells by LPS (FIG. 3) (TNF-α, RAW 264.7 cells): inhibition; Emax (TNF-α, RAW 264.7 cells; [6]): 36.6 ± 4.1%; Emax (NO, RAW 264.7 cells; [8]): 54.6 ± 2.3%; IC50 (Radical scavenging, Sin1): 2.13 ± 0.18 µM
